Reference: US10570122B2, “Compounds with anti-tumoral activity” (AB Science, priority 2015, dated 2020)

Tests used:
BT20 = test: CellTiter-Blue cell-based survival/proliferation assay, BT20; conditions: Homo sapiens, BT-20; BT20 breast tumor cell line, 48 h
Experimental: (§1) Cell-Based Proliferation Screening of Compounds
(§2) CellTiter-Blue cell-based survival/proliferation assay (Promega G8080) was performed on tumor cell lines. A total of 1·10^4 cells/well/50 μl were seeded in a 96-wells plate. Treatment was initiated by addition of a 2× drug solution of 1/10 serial dilutions ranging from 0 to 10 μM. Cells were grown for 48 h at 37° C. and then incubated with 10 μl/well of Promega CellTiter-Bleue reagent for 4 h at 37° C. The amount of resorufin dye formed was quantified by its fluorescence emission at 590 nm using a scanning multiwell spectrophotometer (OPTIMA, BMG labtech, France). A blank well without cells was used as a background control for the spectrophotometer.

HL60 = test: CellTiter-Blue cell-based survival/proliferation assay, HL60; conditions: Homo sapiens, HL-60, Leukemia cell line HL60, 48 h, read-out: Anti-tumoral activity (measured IC50) HL60
Experimental: as §1, §2

HEPG2 = test: CellTiter-Blue cell-based survival/proliferation assay, HEPG2; conditions: Homo sapiens; HEPG2 liver tumor cell line, 48 h
Experimental: as §1, §2

REC1 = test: CellTiter-Blue cell-based survival/proliferation assay, REC1; conditions: Homo sapiens, Lymphoma cell line REC1, 48 h, read-out: Anti-tumoral activity (measured IC50) REC1
Experimental: as §1, §2

PANC1 = test: CellTiter-Blue cell-based survival/proliferation assay, PANC1; conditions: Homo sapiens, PANC-1; PANC_1 pancreas tumor cell line, 48 h
Experimental: as §1, §2

A498 = test: CellTiter-Blue cell-based survival/proliferation assay, A498; conditions: Homo sapiens; A498 kidney tumor cell line, 48 h
Experimental: as §1, §2

OPM2 = test: CellTiter-Blue cell-based survival/proliferation assay, OPM2; conditions: Homo sapiens, OPM-2, Myeloma cell line OPM2, 48 h, read-out: Anti-tumoral activity (measured IC50) OPM2
Experimental: as §1, §2

ACHN = test: CellTiter-Blue cell-based survival/proliferation assay, ACHN; conditions: Homo sapiens; ACHN kidney tumor cell line, 48 h
Experimental: as §1, §2

TOV112D = test: CellTiter-Blue cell-based survival/proliferation assay, TOV112D; conditions: Homo sapiens; TOV112D ovary tumor cell line, 48 h
Experimental: as §1, §2

KARPAS299 = test: CellTiter-Blue cell-based survival/proliferation assay, KARPAS299; conditions: Homo sapiens, KARPAS-299, Lymphoma cell line KARPAS299, 48 h, read-out: Anti-tumoral activity (measured IC50) KARPAS299
Experimental: as §1, §2

CALU6 = test: CellTiter-Blue cell-based survival/proliferation assay, CALU6; conditions: Homo sapiens, Calu-6; CALU6 lung tumor cell line, 48 h
Experimental: as §1, §2

BXPC3 = test: CellTiter-Blue cell-based survival/proliferation assay, BXPC3; conditions: Homo sapiens, BXPC-3; BXPC3 pancreas tumor cell line, 48 h
Experimental: as §1, §2

H1299 = test: CellTiter-Blue cell-based survival/proliferation assay, H1299; conditions: Homo sapiens, NCI-H1299; H1299 lung tumor cell line, 48 h
Experimental: as §1, §2

A549 = test: CellTiter-Blue cell-based survival/proliferation assay, A549; conditions: Homo sapiens; A549 lung tumor cell line, 48 h
Experimental: as §1, §2

SW579 = test: CellTiter-Blue cell-based survival/proliferation assay, SW579; conditions: Homo sapiens; SW579 head & neck tumor cell line, 48 h
Experimental: as §1, §2

MDAMB231 = test: CellTiter-Blue cell-based survival/proliferation assay, MDAMB231; conditions: Homo sapiens, MDA-MB-231; MDAMB231 breast tumor cell line, 48 h
Experimental: as §1, §2

[1] = system: panel of about 34 human tumor cell lines; test: Cell-based proliferation screening on panel of tumor cell lines; conditions: solid tumor cell line, cell line unknown, 48 h, read-out: IC50, solid tumor cell line of column 6 (last section of Table 3)
Experimental: Compounds of formula (I) were tested against a panel of about 34 human tumor cell lines representing 17 cancer type, namely leukemia (represented by 1 cell line), lymphoma (4 cell lines), myeloma (1 cell line), colorectal (2 cell lines), head and neck (3 cell lines), lung (3 cell lines), melanoma (2 cell lines), pancreas (2 cell lines), prostate (2 cell lines), ovary (2 cell lines) breast (2 cell lines), kidney (2 cell lines), stomach (2 cell lines), liver (2 cell lines), glioblastoma (2 cell lines), osteosarcoma (1 cell line), Ewing Sarcoma (1 cell line).
as §1, §2

HEP2 = test: CellTiter-Blue cell-based survival/proliferation assay, HEP2; conditions: Homo sapiens, HEp-2; HEP2 head & neck tumor cell line, 48 h
Experimental: as §1, §2

PLCPRF5 = test: CellTiter-Blue cell-based survival/proliferation assay, PLCPRF5; conditions: Homo sapiens, PLC-PRF-5; PLC_PRF5 liver tumor cell line, 48 h
Experimental: as §1, §2

HUT78 = test: CellTiter-Blue cell-based survival/proliferation assay, HUT78; conditions: Homo sapiens, Lymphoma cell line HUT78, 48 h, read-out: Anti-tumoral activity (measured IC50) HUT78
Experimental: as §1, §2

AGS = test: CellTiter-Blue cell-based survival/proliferation assay, AGS; conditions: Homo sapiens; AGS stomach tumor cell line, 48 h
Experimental: as §1, §2

HGC27 = test: CellTiter-Blue cell-based survival/proliferation assay, HGC27; conditions: Homo sapiens, HGC-27; HGC27 stomach tumor cell line, 48 h
Experimental: as §1, §2

PC3 = test: CellTiter-Blue cell-based survival/proliferation assay, PC3; conditions: Homo sapiens, PC-3; PC3 prostate tumor cell line, 48 h
Experimental: as §1, §2

CLS354 = test: CellTiter-Blue cell-based survival/proliferation assay, CLS354; conditions: Homo sapiens, CLS-354; CLS354_4 head & neck tumor cell line, 48 h
Experimental: as §1, §2

HCT116 = test: CellTiter-Blue cell-based survival/proliferation assay, HCT116; conditions: Homo sapiens, HCT-116; HCT116 colorectal tumor cell line, 48 h
Experimental: as §1, §2

DU145 = test: CellTiter-Blue cell-based survival/proliferation assay, DU145; conditions: Homo sapiens, DU-145; DU145 prostate tumor cell line, 48 h
Experimental: as §1, §2

MESSA = test: CellTiter-Blue cell-based survival/proliferation assay, MESSA; conditions: Homo sapiens, MES-SA; MESSA ovary tumor cell line, 48 h
Experimental: as §1, §2

DLD1 = test: CellTiter-Blue cell-based survival/proliferation assay, DLD1; conditions: Homo sapiens, DLD-1; DLD_1 colorectal tumor cell line, 48 h
Experimental: as §1, §2

SMILES | IC50 (BT20) [nM] | IC50 (HL60) [nM] | IC50 (HEPG2) [nM] | IC50 (REC1) [nM] | IC50 (PANC1) [nM] | IC50 (A498) [nM] | IC50 (OPM2) [nM] | IC50 (ACHN) [nM] | IC50 (TOV112D) [nM] | IC50 (KARPAS299) [nM] | IC50 (CALU6) [nM] | IC50 (BXPC3) [nM] | IC50 (H1299) [nM] | IC50 (A549) [nM] | IC50 (SW579) [nM] | IC50 (MDAMB231) [nM] | IC50 [1] [nM] | IC50 (HEP2) [nM] | IC50 (PLCPRF5) [nM] | IC50 (HUT78) [nM] | also measured
CCOCc1ccc(C)c(Nc2ncc(-c3ccc(-n4nccn4)cc3)o2)c1 [Example 036, (5-Ethoxymethyl-2-methyl-phenyl)-[5-(4-[1,2,3]triazol-2-yl-phenyl)-oxazol-2-yl]-amine] | 500 to 1000 | 100 to 500 | 100 to 500 | ≤ 100 | > 1000 | > 1000 | 100 to 500 | 100 to 500 | ≤ 100 | ≤ 100 | 500 to 1000 | > 1000 | 500 to 1000 | > 1000 | > 1000 | > 1000 | 100 to 500 | 100 to 500 | > 1000 | ≤ 100 | IC50 (AGS): ≤ 100 nM; IC50 (HGC27): ≤ 100 nM; IC50 (PC3): 100 to 500 nM; IC50 (CLS354): ≤ 100 nM; IC50 (HCT116): > 1000 nM; IC50 (DU145): > 1000 nM; IC50 (MESSA): > 1000 nM; IC50 (DLD1): > 1000 nM
Cc1ccc(OCCN2CCOCC2)cc1Nc1ncc(-c2ccc(-n3cccn3)cc2)o1 [Example 029, [2-Methyl-5-(2-morpholin-4-yl-ethoxy)-phenyl]-[5-(4-pyrazol-1-yl-phenyl)-oxazol-2-yl]-amine] | > 1000 | > 1000 | > 1000 | > 1000 | > 1000 | > 1000 | > 1000 | > 1000 | > 1000 | > 1000 | > 1000 | > 1000 | > 1000 | > 1000 | > 1000 | > 1000 | > 1000 | > 1000 | > 1000 | > 1000 | IC50 (AGS): > 1000 nM; IC50 (HGC27): > 1000 nM; IC50 (PC3): > 1000 nM; IC50 (CLS354): > 1000 nM; IC50 (HCT116): > 1000 nM; IC50 (DU145): > 1000 nM; IC50 (MESSA): > 1000 nM; IC50 (DLD1): > 1000 nM
CCOCc1ccc(C)c(Nc2ncc(-c3ccc(-n4cc(C)cn4)cc3)o2)c1 [Example 040, (5-Ethoxymethyl-2-methyl-phenyl)-{5-[4-(4-methyl-pyrazol-1-yl)-phenyl]-oxazol-2-yl}-amine] | > 1000 | > 1000 | > 1000 | > 1000 | > 1000 | > 1000 | > 1000 | > 1000 | > 1000 | > 1000 | > 1000 | > 1000 | > 1000 | > 1000 | > 1000 | > 1000 | > 1000 | > 1000 | > 1000 | > 1000 | IC50 (AGS): > 1000 nM; IC50 (HGC27): > 1000 nM; IC50 (PC3): > 1000 nM; IC50 (CLS354): > 1000 nM; IC50 (HCT116): > 1000 nM; IC50 (DU145): > 1000 nM; IC50 (MESSA): > 1000 nM; IC50 (DLD1): > 1000 nM
COc1ccc(C)c(Nc2ncc(-c3ccc(-n4cccn4)cc3)o2)c1 [Example 023, (5-Methoxy-2-methyl-phenyl)-[5-(4-pyrazol-1-yl-phenyl)-oxazol-2-yl]-amine] | > 1000 | 100 to 500 | > 1000 | 100 to 500 | > 1000 | > 1000 | 100 to 500 | > 1000 | > 1000 | 100 to 500 | > 1000 | > 1000 | > 1000 | > 1000 | > 1000 | > 1000 | 100 to 500 | > 1000 | > 1000 | 100 to 500 | IC50 (AGS): > 1000 nM; IC50 (HGC27): > 1000 nM; IC50 (PC3): > 1000 nM; IC50 (CLS354): 100 to 500 nM; IC50 (HCT116): > 1000 nM; IC50 (DU145): > 1000 nM; IC50 (MESSA): > 1000 nM; IC50 (DLD1): > 1000 nM
